# Data taken from US10294202B2, “Pyrrolidinones as herbicides” (FMC Corporation, priority 2013, dated 2019).
# Experiments:
# kochia [1] = assay: Test C pre-/postemergence herbicide test; format: in vivo, Kochia scoparia
# Source text: Seeds of plant species selected from blackgrass (Alopecurus myosuroides), ryegrass, Italian (Italian ryegrass, Lolium multiflorum), wheat (winter wheat, Triticum aestivum), galium (catchweed bedstraw, Galium aparine), corn (Zea mays), crabgrass, large (large crabgrass, Digitaria sanguinalis), foxtail, giant (giant foxtail, Setaria faberii), johnsongrass (Sorghum halepense), lambsquarters (Chenopodium album), morningglory (Ipomoea coccinea), nutsedge, yellow (yellow nutsedge, Cyperus esculentus), pigweed (Amaranthus retroflexus), ragweed (common ragweed, Ambrosia elatior), soybean (Glycine max), barnyardgrass (Echinochloa crus-galli), oilseed rape (Brassica napus), waterhemp (common waterhemp, Amaranthus rudis), kochia (Kochia scoparia), oat, wild (wild oat, Avena fatua), surinam grass (Brachiaria decumbens), foxtail, green (green foxtail, Setaria viridis), goosegrass (Eleusine indica), bromegrass, downy (downy bromegrass, Bromus tectorum), nightshade (eastern black nightshade, Solanum ptycanthum), cocklebur (common cocklebur, Xanthium strumarium), cupgrass, woolly (woolly cupgrass, Eriochloa villosa), bermudagrass (Cynodon dactylon), sunflower, (common oilseed sunflower, Helianthus annuus), Russian thistle (Salsola kali) and velvetleaf (Abutilon theophrasti) were planted into a blend of loam soil and sand and treated preemergence with test chemicals formulated in a non-phytotoxic solvent mixture which included a surfactant. At the same time, plants selected from these crop and weed species and also barley (winter barley, Hordeum vulgare), […]), chickweed (common chickweed, Stellaria media), deadnettle (henbit deadnettle, Lamium amplexicaule), and canarygrass (littleseed canarygrass, Phalaris minor) were planted in pots containing Redi-Earth® planting medium (Scotts Company, 14111 Scottslawn Road, Marysville, Ohio 43041) comprising spaghnum peat moss, vermiculite, wetting agent and starter nutrients and treated with postemergence applications of test chemicals formulated in the same manner. Plants ranged in height from 2 to 18 cm (1- to 4-leaf stage) for postemergence treatments. Treated plants and controls were maintained in a greenhouse for 13 to 15 days, after which time all species were compared to controls and visually evaluated. Plant response ratings, summarized in Table C, are based on a scale of 0 to 100 where 0 is no effect and 100 is complete control. A dash (-) response means no test result.
# kochia [2] = assay: Test A pre-/postemergence herbicide test; format: in vivo, Kochia scoparia
# How it was run: (§1)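 Planted in loam–sand blend; treated the same day preemergence by directed soil spray, while separately grown plants at one- to two-leaf stage got postemergence spray. Compared visually with untreated controls after approximately 10 days; 100 means complete control.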
# ragweed = assay: Test A pre-/postemergence herbicide test; format: in vivo, Ambrosia elatior
# How it was run: as §1
# ryegrass, Italian = assay: Test A pre-/postemergence herbicide test; format: in vivo, Lolium multiflorum
# How it was run: as §1
# blackgrass = assay: Test A postemergence herbicide test; format: in vivo, Alopecurus myosuroides
# How it was run: (§2)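 Plants at the one- to two-leaf stage, 2–10 cm tall, grown in loam/sand pots, received postemergence sprays of the test chemicals. After about 10 days in the greenhouse, injury was scored visually against untreated controls on a 0–100 scale (0 none, 100 complete control).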
# galium = assay: Test A postemergence herbicide test; format: in vivo, Galium aparine
# How it was run: as §2
# [3] = Preemergence, 62 g ai/ha, scale 0 to 100
# [4] = Preemergence, 125 g ai/ha, scale 0 to 100 (0 no effect, 100 complete control)
# [5] = Postemergence, 125 g ai/ha, visual rating on 0 to 100 scale (0 no effect, 100 complete control), approx. 10 days
# [6] = Postemergence, 500 g ai/ha, 0 to 100 scale (0 no effect, 100 complete control)
# [7] = Preemergence, 125 g ai/ha, 0 to 100 scale where 0 is no effect and 100 is complete control
# [8] = Preemergence, 500 g ai/ha, visual rating on 0 to 100 scale (0 no effect, 100 complete control)
# [9] = 125 g ai/ha, visual rating on 0 to 100 scale (0 no effect, 100 complete control), approx. 10 days
# [10] = 500 g ai/ha, 0 to 100 scale (0 no effect, 100 complete control)
# [11] = Postemergence, 31 g ai/ha, scale 0 to 100 (0 no effect, 100 complete control)
# [12] = Postemergence, 62 g ai/ha, scale 0 (no effect) to 100 (complete control)
# [13] = Postemergence, 250 g ai/ha, scale 0 to 100 (0 no effect, 100 complete control)
# [14] = preemergence, 500 g ai/ha, 0 to 100 scale, 0 is no effect and 100 is complete control
# [15] = 125 g ai/ha, 0 to 100 scale, 0 is no effect, 100 is complete control
# [16] = Postemergence, 125 g ai/ha, scale 0 to 100 (0 no effect, 100 complete control)
SMILES,"Plant response rating, Kochia (kochia [1]; [3])","Plant response rating, Kochia (kochia [1]; [4])","Plant response rating, Kochia (kochia [2]; [6])","Plant response rating, Kochia (kochia [2]; [7])","Plant response rating, Ragweed (ragweed; [5])","Plant response rating, Ragweed (ragweed; [6])","Plant response rating, Ragweed (ragweed; [7])","Plant response rating, Ryegrass, Italian (ryegrass, Italian; [5])","Plant response rating, Ryegrass, Italian (ryegrass, Italian; [6])","Plant response rating, Ryegrass, Italian (ryegrass, Italian; [7])","Plant response rating, Blackgrass (blackgrass; [10])","Plant response rating, Galium (galium; [10])","Plant response rating, Kochia (kochia [1]; [11])","Plant response rating, Kochia (kochia [1]; [12])","Plant response rating, Kochia (kochia [1]; [13])","Plant response rating, Kochia (kochia [1]; [16])",other results
O=C1NCC(c2ccc(Cl)c(F)c2)C1C(=O)Nc1ccccc1F (stereo not shown) [Compound 53],0,0,,,,,,,,,,,,,,,
O=C1NCC(c2cccc(Br)c2)C1C(=O)Nc1cccc(F)c1F (stereo not shown) [Compound 309],,,0,0,0,0,0,10,30,0,70,70,5,5,75,,"Plant response rating, Kochia (kochia [2]; [5]): 0; Kochia plant response rating (kochia [2]; [8]): 0; Ryegrass, Italian plant response rating (ryegrass, Italian; [8]): 20; Plant response rating, Blackgrass (blackgrass; [9]): 60; Plant response rating, Galium (galium; [9]): 60"
O=C1NCC(c2cc(F)c(F)c(F)c2)C1C(=O)Nc1ccccc1C(F)(F)F (racemic) [Compound 33],0,0,,,,,,,,,,,,,,,
O=C1NCC(c2cccc(OC(F)(F)F)c2)C1C(=O)Nc1cccc(F)c1F (stereo not shown) [Compound 68],0,0,,,,,,,,,,,,,,,"Kochia plant response rating (kochia [1]; Preemergence, 31 g ai/ha, scale 0 to 100, 0 is no effect and 100 is complete control): 0"
O=C1NCC(c2cc(F)cc(F)c2)C1C(=O)Nc1ccc(F)cc1F (racemic) [Compound 278],,,0,0,0,0,0,0,0,0,60,50,0,0,5,0,"Plant response rating, Kochia (kochia [2]; Postemergence, 125 g ai/ha, 0 to 100 scale, 0 is no effect, 100 is complete control): 0; Plant response rating, Kochia (kochia [2]; [14]): 0; Plant response rating, Ragweed (ragweed; [14]): 0; Plant response rating, Ryegrass, Italian (ryegrass, Italian; [14]): 0; Plant response rating, Blackgrass (blackgrass; [15]): 30; Plant response rating, Galium (galium; [15]): 40"
O=C1NCC(c2ccc(F)c(C(F)(F)F)c2)C1C(=O)Nc1ccccc1F (racemic) [Compound 76],,,,,,,,,,,,,,,65,50,"Plant response rating, Kochia (kochia [1]; Postemergence, 31 g ai/ha, scale 0 (no effect) to 100 (complete control)): 40; Plant response rating, Kochia (kochia [1]; Postemergence, 62 g ai/ha, scale 0 to 100 (0 no effect, 100 complete control)): 50"
